From a melting point compilation (Tetko et al.; mined from patent text by program, amines drawn as free bases though some values may be those of a salt)

melting point | SMILES
149 °C | Cc1c(NC(=O)c2ccc(OC[C@@H]3CCCO3)cc2F)ccc2c1cc(CNCC1CCOCC1)n2C
226 to 230 °C | CC(O)CNc1ccc(NC(=O)n2ccc3cc(Oc4cc(CC(N)=O)ncn4)ccc32)cc1C(F)(F)F (stereo unspecified)
128 to 130 °C | CC(C)(C)C(=O)c1ccc(C(C)(C)C(=O)O)cc1
229 to 233 °C | CC(C)(C)C(=O)CN1C(=O)C(NC(=O)Nc2cccc(C(=O)NS(C)(=O)=O)c2)CN(c2ccccc2)c2ccccc21 (stereo unspecified)
190 to 194 °C | O=C(Nc1ccc(Cl)cc1)NS(=O)(=O)c1ccc2c(c1)CCO2
126 to 127 °C | C#CCn1c(I)cc(C(O)CC)c(C)c1=O (stereo unspecified)
72 to 74 °C | COC(=O)c1cc2n(c1)CCCC2
125 to 130 °C | C[C@@H](n1cnc2cc(S(=O)(=O)c3ccccc3)ccc2c1=O)[C@](O)(Cn1cncn1)c1ccc(F)cc1F
166 to 168 °C | CCCCOC(=O)c1ccc(C(=O)NNC(=O)c2ccc(C(=O)OCCCC)cc2)cc1
137 °C | NCC1(O)CCN(CC2OCCO2)CC1
179 °C | CCOC(=O)N1CCc2nc3c(O)c(Br)cc(Br)c3c(C)c2CC1
132 to 134 °C | COC(=O)c1ccc(S(=O)(=O)Cc2c(O)ccc3c2CCCC3=O)cc1
60 to 61 °C | CCOC(=O)/C(=C\Nc1cccc(OC)c1)c1ccc(OC)cc1
86 to 88 °C | CC(C)(O)C(C(=O)O)c1ccc(F)cc1 (stereo unspecified)
215 to 216 °C | CC(=O)c1c(F)cc2c(=O)c(C(=O)O)cn(CCF)c2c1F
183 to 186 °C | O=C(NCCN1CCCC1)c1ccc(-c2ccc3nnn(Cc4ccc5ncccc5c4)c3n2)cc1F

melting point | SMILES
225 to 227 °C | CC1(C)CCOc2c(C(O)C#Cc3ccc(C(=O)O)c(O)c3)cccc21 (stereo unspecified)
129 to 131 °C | Cc1ccc(S(=O)(=O)n2ccc3cc(C#N)ccc32)cc1
106 °C | CC(C)n1nc(C#Cc2ccc(F)cc2)ccc1=O
204 to 205 °C | O=S(=O)(NCCCO)c1ccc(Nc2nccc(-c3ccc(C(F)(F)F)cc3)n2)cc1
159 °C | CC(O)c1nc(N)nc(N)c1-c1ccc(Cl)cc1 (stereo unspecified)
70.2 to 71.3 °C | CC1CCCN(C(=O)c2ccc([N+](=O)[O-])cc2)C1 (stereo unspecified)
146 to 148 °C | O=C(NCc1ccc(OCc2cccc(F)c2)cc1)C(=NO)c1ccccn1
174 to 175 °C | CCSc1ccc(-c2coc3ccc(-c4nnc(C)o4)nc23)cc1
192 to 193 °C | Nc1nc2ccccc2c2c1nc(CF)n2Cc1cc(-c2ccc(F)cc2)no1
198 to 199 °C | C=Cc1cn([C@@H]2O[C@H](C)[C@@H](OC(C)=O)[C@H]2OC(C)=O)c(=O)nc1N
207 to 208 °C | Cn1cnc([N+](=O)[O-])c1Sc1nc(N)nc2c1ncn2C1C=CC(CO)C1 (stereo unspecified)
61 to 63 °C | O=Cc1cc([N+](=O)[O-])c(Cl)cc1Cl
> 300 °C | Oc1nc(O)c2c(n1)CCCS2
184 to 188 °C | CNC(=S)n1nc(N=CN(C)C)nc1N
211 °C | CCCC1=NN(c2ccc([N+](=O)[O-])cc2)C(=O)C1=CNc1ccccc1CC
226 to 227 °C | CC(C)n1nc(-c2sc(NC(=O)C3CC3)nc2-c2ccccc2)ccc1=O

More lines, now with the values behind:

SMILES | melting point
CCc1cc2c(c(Sc3ccccc3)cc(=O)n2Cc2ccc(-c3ccccc3-c3nnn(C(c4ccccc4)(c4ccccc4)c4ccccc4)n3)cc2)c(CC)n1 | 156 to 158 °C
Cc1ccc(N2CCC(CCOc3ccc(-c4nc(C(C)C)no4)cc3)CC2)nn1 | 135 °C
COCCOc1ccc(I)cc1 | 36 to 37 °C
NC(=S)NN1CCc2cc(Cl)ccc21 | 199 to 200 °C
C=CCn1c2ccc(OC)cc2c2c3c(c(-c4ccccc4Cl)cc21)C(=O)N(Cc1ccc(OC)cc1OC)C3=O | 171 to 173 °C
Cc1ccc(C(=O)c2ccc(CC(=O)O)n2C)c(Cl)c1 | 176 to 178 °C
CCCOC(=O)Nc1ccc(OCC2CC2(Cl)Cl)c(Cl)c1 (stereo unspecified) | 57 to 59 °C
Cc1noc(C)c1-c1ccc(OC2SCC(O)C(O)C2O)c(F)c1 (stereo unspecified) | 140 °C
C[C@H](N)Cn1ncc2ccc3oc(C(N)=O)nc3c21 | 60 to 65 °C
CN1CCN(C(=O)CC2CN=C(c3cc4cccc(N(C)S(=O)(=O)c5cccs5)c4[nH]3)S2)CC1 (stereo unspecified) | 151 to 153 °C
O=C(O)C1=Cc2cc(Cl)c(Cl)cc2OC1C(F)(F)F (stereo unspecified) | 196 to 198 °C
Cc1ccc(-c2ncc(N3CCC(O)CC3)nc2-c2ccc(C)cc2)cc1 | 176 to 178 °C
COc1ccc(C(=O)N2c3ccccc3C(N3CCCCc4ccccc43)=CC2C)cc1OC (stereo unspecified) | 151 to 152 °C
CCOC(=O)C1CCC2(C)C(=CC(O)C3C2CCC2(C)C(O)CCC32)C1 (stereo unspecified) | 170 to 171 °C
COc1cc(Nc2c(C#N)cnc3cc(/C=C/CCO[Si](C)(C)C(C)(C)C)c(OC)cc23)c(Cl)cc1Cl | 97 to 99 °C
C=CCN(CC=C)Cc1noc(-c2ncn3c2CN(C)C(=O)c2ccccc2-3)n1 | 203 to 205 °C
O=C(c1ccccc1F)c1cc(Cl)ccc1C(=O)C(Br)CN1C(=O)c2ccccc2C1=O (stereo unspecified) | 125 to 128 °C
COc1cc(CNc2n[nH]c3ncnc(Nc4cccc(Cl)c4)c23)cc(OC)c1 | 208 to 209 °C
O=C(CS(=O)(=O)c1ccccc1)OC1CCCCC1 | 35 to 38 °C
COc1ccc(-c2nc(SCCCCCc3nc4ccccc4[nH]3)[nH]c2-c2ccc(OC)cc2)cc1 | 85 to 86 °C

SMILES | melting point
FC(F)(F)c1cccc(C2=CCN(CCc3ccc4cc[nH]c4c3)CC2)c1 | 168 to 169 °C
Cc1c(C(=O)O)cnn1-c1cccc(Cl)c1 | 145 °C
CN(C(=O)OC(C)(C)C)c1cc(Sc2cc(C(C)(C)C)c(O)c(C(C)(C)C)c2)ccc1N | 95 to 96 °C
COc1ccc(CC(C(=O)n2ccnc2)C(C)(C)C)cc1 (stereo unspecified) | 89.5 to 91 °C
CCS(=O)(=O)c1ccc(C(=O)NCc2ccc3c(c2)C(=O)N(C2CCC(=O)NC2=O)C3=O)cc1 (stereo unspecified) | 182 to 184 °C
COC(=O)c1ccc(-c2nc(-c3ccc(Oc4ccccc4)cc3)no2)cc1 | 112 to 113 °C
CCOC(=O)COc1ccc(NS(C)(=O)=O)cc1OC | 118 to 119 °C
O=C(O)CCC(=O)CCS | 40 to 42 °C
O=S(=O)(Cl)c1cc(S(=O)(=O)Cl)c(Cl)cc1Cl | 104 °C
COc1nc2cccc(C(=O)O)c2n1Cc1ccc(-c2ccccc2-c2nc(=O)o[nH]2)cc1 | 189 to 190 °C
Oc1cc(C(F)(F)F)nn1C1CCCCO1 (stereo unspecified) | 129 to 130 °C
CCc1nnc(NS(=O)(=O)c2ccc(NC(C)=O)cc2)s1 | 197 to 198 °C
Nc1ccc2c(c1)C(=O)C1(CC1)S2 | 148 to 150 °C
COC(=O)c1nc(C)[nH]c1C(=O)OC | 138 to 140 °C
CCC(=O)NCC1CC1c1c(Cl)ccc2nn(C)cc12 (stereo unspecified) | 152 to 153 °C
Cc1nc(C2(C)CC2(Cl)Cl)nn1-c1c(Cl)cc(C(F)(F)F)cc1Cl (stereo unspecified) | 107 to 116 °C
CC(=O)Nc1ccc(S(=O)(=O)Nc2cc(C)c(S(=O)(=O)C[N+](=O)[O-])c(C)c2)cc1 | 209 to 210 °C
CCOC(=O)c1ccc(C(=O)OCC)nc1 | 46 to 47 °C
O=C(OCCO)c1cc(-c2ccc(Cl)cc2)c[nH]1 | 128 to 130 °C
